The values below come from ChEMBL document CHEMBL1201862, “PubChem BioAssay data set” (2004).

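Briefly, cells in 96-well plates were exposed to five compound concentrations for 48 h, and endpoints were estimated by linear interpolation. GI50: concentration for 50% inhibition of growth.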 Calls of active or inactive are those of the source. Rule as the data show it: active = GI50 up to about 1.1 µM and inactive = higher.

Among the test systems are ACHN; HL-60; SNB-78; UO-31; SN12C; DMS-114; SR; DMS-273; OVCAR-3; RXF 393; SK-MEL-28; COLO 205; M19-MEL; SK-OV-3.
Assay in all cases: DTP human tumour cell line panel, 48 h

In general, GI50 refers to the concentration at which growth is held to half of that of the control. `Nc1c(Br)c(=O)[nH]c(=O)n1COCCO`: the GI50 in the test on ACHN, in the test on HL-60, in the test with SNB-78, in the test with UO-31, with SN12C and in the test with DMS-114 was > 100 µM (inactive) throughout. For the same compound, the GI50 with SR, in the test on DMS-273, in the test with OVCAR-3, in the test with RXF 393, with SK-MEL-28 and in the test with COLO 205 was > 100 µM (inactive) throughout. Also, the GI50 in the test on M19-MEL is > 100 µM (inactive).

Regarding `C[n+]1cn(CC(=O)c2ccccc2)c(C(N)=O)c1N`, the GI50 with ACHN is > 100 µM (inactive); in the test with SK-OV-3 it was > 100 µM (inactive); with HL-60, 0.337 µM (active); in the test with SNB-78, > 100 µM (inactive); in the test on UO-31, > 100 µM (inactive); in the test with SN12C, > 100 µM (inactive). The GI50 was 25 µM (inactive) with DMS-114; > 100 µM (inactive) in the test with SR; > 100 µM (inactive) with DMS-273; > 100 µM (inactive) with OVCAR-3; > 100 µM (inactive) with SK-MEL-28; 41.4 µM (inactive) in the test on COLO 205. Further, in the test on M19-MEL, the GI50 was 25.2 µM (inactive).

`O/N=C1\C(=C\c2ccc3c(c2)OCCO3)CCCC1C(NO)c1ccc2c(c1)OCCO2` (stereo unspecified): the GI50 with ACHN was 34.5 µM (inactive); with SK-OV-3 it was 49.9 µM (inactive); with HL-60, 14.7 µM (inactive); in the test with SNB-78, 33.9 µM (inactive); in the test on UO-31, 26.8 µM (inactive); with SN12C, 14 µM (inactive). Besides, the GI50 is 20.1 µM (inactive) in the test on DMS-114; 14.3 µM (inactive) with SR; 19.2 µM (inactive) in the test on DMS-273; 18.3 µM (inactive) in the test with OVCAR-3; 25.8 µM (inactive) in the test on RXF 393; 18.5 µM (inactive) in the test on SK-MEL-28. In addition, the GI50 in the test on COLO 205 is 32.4 µM (inactive); in the test with M19-MEL it was 24.9 µM (inactive).

With `O=C(O)Cc1ccc2c(c1O)C(=O)c1c(ccc(CC(=O)O)c1O)C2=O`, the GI50 in the test with ACHN, in the test with SK-OV-3, in the test with HL-60, in the test on SNB-78, with SN12C and in the test on DMS-114 was > 100 µM (inactive) each time. Moreover, the GI50 in the test on SR, with DMS-273, in the test with OVCAR-3, in the test with SK-MEL-28, in the test with COLO 205 and in the test with M19-MEL was > 100 µM (inactive) throughout.

Turning to `CC(CC(=O)Nc1ccc(NC(=O)CC(C)/N=N\C(N)=S)cc1)/N=N\C(N)=S` (stereo unspecified), the GI50 was > 100 µM (inactive) in the test with ACHN; > 100 µM (inactive) in the test on HL-60; > 100 µM (inactive) in the test with SNB-78; > 100 µM (inactive) with UO-31; > 100 µM (inactive) with SN12C; 53.7 µM (inactive) with DMS-114. The GI50 is 48.9 µM (inactive) with SR; 36.9 µM (inactive) with DMS-273; > 100 µM (inactive) with OVCAR-3; > 100 µM (inactive) in the test with RXF 393; > 100 µM (inactive) in the test with SK-MEL-28; > 100 µM (inactive) in the test on COLO 205. For the same compound, the GI50 in the test with M19-MEL is > 100 µM (inactive).

Take `Cc1c(OCCCOc2ccc3c(=O)cc(-c4ccccc4)oc3c2C)ccc2c(=O)cc(-c3ccccc3)oc12`: the GI50 in the test with SK-OV-3 was > 100 µM (inactive); in the test with HL-60, 41.4 µM (inactive); in the test with SNB-78 it was 51.2 µM (inactive); with UO-31 it was > 100 µM (inactive); in the test on DMS-114, > 100 µM (inactive); in the test on SR, 44.2 µM (inactive). For the same compound, the GI50 in the test on DMS-273 is > 100 µM (inactive); in the test on OVCAR-3, > 100 µM (inactive); with RXF 393, 74 µM (inactive); with SK-MEL-28, > 100 µM (inactive); in the test with M19-MEL it was > 100 µM (inactive).

With `Cc1ccccc1C(=O)c1cc(O)ccc1O`, the GI50 in the test on ACHN was > 100 µM (inactive); in the test with SK-OV-3, > 100 µM (inactive); with HL-60, 31.8 µM (inactive); in the test with SNB-78, > 100 µM (inactive); with UO-31 it was > 100 µM (inactive); in the test with SN12C, > 100 µM (inactive). Moreover, the GI50 with DMS-114 was 45.7 µM (inactive); in the test on SR, 78 µM (inactive); in the test with DMS-273, 42.3 µM (inactive); with OVCAR-3, > 100 µM (inactive); in the test on RXF 393 it was > 100 µM (inactive); in the test on COLO 205, 50.6 µM (inactive). In addition, the GI50 with M19-MEL was > 100 µM (inactive).

For the compound `O=C1Nc2cccc3ncn(c23)C2=C1CCCC2`, the GI50 is > 100 µM (inactive) in the test on ACHN; 96.2 µM (inactive) in the test with SK-OV-3; > 100 µM (inactive) in the test with HL-60; > 100 µM (inactive) with SNB-78; > 100 µM (inactive) in the test with UO-31; > 100 µM (inactive) in the test with SN12C. Further, the GI50 with DMS-114, in the test on SR, in the test on DMS-273, with RXF 393, in the test with SK-MEL-28 and in the test on COLO 205 was > 100 µM (inactive) in each case. Besides, the GI50 with M19-MEL is > 100 µM (inactive).

On to `OCC(O)C(O)c1nn(-c2ccccc2)c2nc3cc(Cl)c(Cl)cc3nc12` (stereo unspecified), for which the GI50 in the test on ACHN was 19.5 µM (inactive); in the test on SK-OV-3, 30.6 µM (inactive); in the test with HL-60, 18.2 µM (inactive); in the test with SNB-78, 50.2 µM (inactive); in the test on UO-31, 5.98 µM (inactive); in the test on SN12C, 63.5 µM (inactive). Besides, the GI50 in the test with DMS-114 was 21 µM (inactive); in the test with DMS-273, 15.7 µM (inactive); in the test with OVCAR-3, 27.4 µM (inactive); with RXF 393 it was 21.2 µM (inactive); in the test on SK-MEL-28, 41.3 µM (inactive); in the test with COLO 205, 24.7 µM (inactive). Further, the GI50 in the test with M19-MEL was 28.8 µM (inactive).

As for `CC1=CC2C(C=C1)S(=O)(=O)N1CC21c1ccccc1` (stereo unspecified), the GI50 in the test with ACHN is > 100 µM (inactive); with SK-OV-3 it was > 100 µM (inactive); with HL-60 it was > 100 µM (inactive); with SNB-78, > 100 µM (inactive); with UO-31, 55.1 µM (inactive); in the test on SN12C it was > 100 µM (inactive). The GI50 is 21.4 µM (inactive) in the test on DMS-114; 90.8 µM (inactive) in the test with SR; > 100 µM (inactive) with DMS-273; > 100 µM (inactive) in the test on OVCAR-3; > 100 µM (inactive) with SK-MEL-28; > 100 µM (inactive) in the test on COLO 205. Also, in the test with M19-MEL, the GI50 was > 100 µM (inactive).

Regarding `COC1CC(O[C@H]2CC[C@@]3(C)C(=CCC4(O)C3CCC35C(=O)OC6(C)O[C@@]43CCC65)C2)OC(C)C1O` (stereo partly specified), the GI50 in the test on ACHN, in the test with SK-OV-3, in the test with HL-60, with SNB-78, in the test on UO-31 and in the test with SN12C was > 100 µM (inactive) each time. Moreover, the GI50 with DMS-114, in the test with SR, in the test on DMS-273, in the test on RXF 393, in the test with SK-MEL-28 and in the test with COLO 205 was > 100 µM (inactive) in each case. Besides, the GI50 with M19-MEL is > 100 µM (inactive).
